From patent publication US20090169642A1, “RECONSTRUCTED LIVING ADIPOSE TISSUE” (priority 2005, published 2009)

Tests used:
[1] = tested on: tissue-engineered adipose sheets; experiment: Lipolysis measurements (glycerol release from adipose tissue sheets); assay type: cell-based, human
Procedure: Lipolysis measurements. The lipolytic cell response of the adipose tissue sheets cultured for 27 days was assessed by measuring the amount of glycerol released into the incubation medium after treatment with 1 μM isoproterenol or its appropriate vehicle control. The tissues were previously incubated in serum-free medium for a minimum of 2 days to avoid interference with serum factors, and rinsed with serum-free medium before the assay. After 1, 2, 4 and 24 hours, the conditioned medium was immediately tested for the release of glycerol using an enzyme-coupled glycerol assay based on a colorimetric quantification (Sigma).

[2] = tested on: adipose-derived stromal cells; experiment: Quantification of adipose differentiation by Oil Red O staining; assay type: cell-based, human; settings: fresh stromal cells not submitted to freezing, medium with vs without ascorbic acid
Procedure: Quantification of adipose differentiation. After 14 days of differentiation, independently of the time spent in culture before the time of adipogenic induction, Oil Red 0 (ORO) staining of the cytoplasmic neutral lipids of the droplets were performed according to a modification from [Kuri-Harcuch W et al. 1978; 75(12):6107-9, Ramirez-Zacarias J L et al. Histochemistry 1992; 97(6):493-7]. Briefly, cultures were rinsed, fixed with 10% buffered formalin, stained with 0.3% ORO in isopropanol and extracted with 4% Nonidet/isopropanol for quantification at 520 nm using a SpectraMax Plus™ spectrometer (Molecular Device) with SoftmaxPro™ Ver 4.7.1.

| Compound | time of peak in glycerol release post-stimulation ([1]; 1 μm isoproterenol, LA adipose tissue sheet cells in P3, adipocytes differentiated for 20 days, relative to basal levels) [h] | lipolytic activation (hydrolysis of triglycerides into fatty acids and glycerol) ([1]; isoproterenol 1 μM, adipose constructs from lipoaspirated fat in P3, 20 days of in vitro differentiation) | adipocyte differentiation (ORO staining) [2] |
| --- | --- | --- | --- |
| CC(C)NCC(O)c1ccc(O)c(O)c1 (stereo not drawn) [Isoproterenol] | 2 | induced the hydrolysis of triglycerides |  |
| O=C1O[C@H]([C@@H](O)CO)C(O)=C1O [ascorbic acid] |  |  | can promote adipocyte differentiation |
